From ChEMBL document CHEMBL5303304, “EUbOPEN Chemogenomics Library - IncuCyte” (2023) come the findings set out here.

Assay type in all cases: toxicity, cell-based
One data set deals with U2OS. The experiment in a line: Incucyte cell viability with U2OS. The settings on record: human, 10 µM, compound concentration 10 uM.
In another data set the test system is HEK-293T. The experiment in a line: Incucyte cell viability with HEK293T. The settings on record: human, 10 µM, compound concentration 10 uM.
A further data set has as its system Fibroblast. Description: Incucyte cell viability with human fibroblast. As to conditions: 10 µM, compound concentration 10 uM.
Further: unitless GR value; below 1 slowed growth and below 0 cell loss.

Consider `CCNC1=N[C@@H]2[C@@H](O)[C@H](O)[C@@H](CO)O[C@@H]2S1`, for which the “Growth Rate” value is -0.37 in the data set on U2OS (0 h, replicate number 1); 0.47 in the data set on U2OS (0 h, replicate number 2); 0.53 in the data set with U2OS (6 h, replicate number 1); 0.45 in the data set with U2OS (6 h, replicate number 2); 0.86 in the data set with U2OS (12 h, replicate number 1); 0.79 with U2OS (12 h, replicate number 2). Further, the “Growth Rate” value with U2OS (18 h, replicate number 1) is listed as 0.91; with U2OS (18 h, replicate number 2), 0.81; in the data set with U2OS (24 h, replicate number 1), 0.95; in the data set with U2OS (24 h, replicate number 2), 0.74; in the data set on HEK-293T (0 h, replicate number 1), -0.01; in the data set with HEK-293T (0 h, replicate number 2), -0.15. The “Growth Rate” value in the data set with HEK-293T (6 h, replicate number 2) was found to be 0.53; in the data set with HEK-293T (12 h, replicate number 2), 0.93; in the data set with HEK-293T (18 h, replicate number 1) it was 0.78; in the data set with HEK-293T (24 h, replicate number 1) it was 0.86; in the data set with HEK-293T (24 h, replicate number 2), 0.89; in the data set on Fibroblast (6 h, replicate number 2), 0.18. Besides, the “Growth Rate” value came to 0.91 with Fibroblast (12 h, replicate number 1); 0.76 in the data set with Fibroblast (12 h, replicate number 2); 0.83 in the data set on Fibroblast (18 h, replicate number 1); 0.8 in the data set on Fibroblast (18 h, replicate number 2); 0.92 with Fibroblast (24 h, replicate number 1); 0.99 with Fibroblast (24 h, replicate number 2).

On to `Fc1ccc(Cl)cc1-c1nc(Nc2ccncc2)c2nccnc2n1`, for which the “Growth Rate” value in the data set with U2OS (0 h, replicate number 1) is given as -0.59; in the data set on U2OS (0 h, replicate number 2), 0.75; in the data set on U2OS (6 h, replicate number 1), 0.78; with U2OS (6 h, replicate number 2), 0.55; in the data set on U2OS (12 h, replicate number 1), 0.86; in the data set with U2OS (12 h, replicate number 2) it was 0.77. Moreover, the “Growth Rate” value is 0.67 with U2OS (18 h, replicate number 1); 0.87 in the data set on U2OS (18 h, replicate number 2); 0.95 in the data set on U2OS (24 h, replicate number 1); 0.75 in the data set on U2OS (24 h, replicate number 2); -0.93 in the data set with HEK-293T (0 h, replicate number 1); 0.79 in the data set on HEK-293T (6 h, replicate number 2). Also, the “Growth Rate” value in the data set on HEK-293T (12 h, replicate number 2) is 0.91; in the data set with Fibroblast (0 h, replicate number 2), -0.5.

Turning to `CCc1c(-c2ccc3[nH]ncc3c2)cnc(N)c1-c1ccc(O)cc1`, the “Growth Rate” value is recorded as -0.93 in the data set with U2OS (0 h, replicate number 2); 0.84 in the data set with U2OS (6 h, replicate number 2); 0.92 with U2OS (24 h, replicate number 1); -0.12 with HEK-293T (0 h, replicate number 1); 0.85 in the data set with HEK-293T (6 h, replicate number 1); 0.91 in the data set on HEK-293T (6 h, replicate number 2). Also, the “Growth Rate” value with HEK-293T (12 h, replicate number 1) is 0.8; in the data set with HEK-293T (12 h, replicate number 2), 0.9; with HEK-293T (18 h, replicate number 2), 0.91; in the data set with HEK-293T (24 h, replicate number 1), 0.99; with HEK-293T (24 h, replicate number 2), 0.88; in the data set on Fibroblast (0 h, replicate number 2), -0.31. For the same compound, the “Growth Rate” value in the data set with Fibroblast (6 h, replicate number 1) amounted to 0.91.

For the compound `Cc1[nH]c2c(N3CCCCC3)c(-c3ccccc3)nn2c(=O)c1-c1ccc(O)cc1`, the “Growth Rate” value in the data set with U2OS (0 h, replicate number 1) was -0.56; in the data set with U2OS (6 h, replicate number 1), 0.77; in the data set with U2OS (6 h, replicate number 2) it was 0.87; in the data set with U2OS (12 h, replicate number 1), 0.9; in the data set with U2OS (12 h, replicate number 2), 0.92; with U2OS (18 h, replicate number 1) it was 0.85. The “Growth Rate” value in the data set on U2OS (18 h, replicate number 2) is on record as 0.93; in the data set with U2OS (24 h, replicate number 1) it was 0.78; in the data set with U2OS (24 h, replicate number 2), 0.82; in the data set with HEK-293T (0 h, replicate number 1) it was -0.59; in the data set on HEK-293T (6 h, replicate number 1), 0.95; with HEK-293T (6 h, replicate number 2) it was 0.55. Also, the “Growth Rate” value is reported as 0.88 in the data set with HEK-293T (12 h, replicate number 2); -0.08 in the data set with Fibroblast (0 h, replicate number 1); 0.19 with Fibroblast (6 h, replicate number 2); 0.39 in the data set on Fibroblast (12 h, replicate number 2); 0.73 in the data set on Fibroblast (18 h, replicate number 1); 0.35 in the data set with Fibroblast (18 h, replicate number 2). Moreover, the “Growth Rate” value with Fibroblast (24 h, replicate number 1) came to 0.64; with Fibroblast (24 h, replicate number 2), 0.24.

On to `O=c1[nH]c(CS[C@H]2CC[C@H](O)CC2)nc2cc(OCC3CC3)cc(F)c12`, for which the “Growth Rate” value in the data set on U2OS (0 h, replicate number 1) was -0.28; with U2OS (0 h, replicate number 2), 0.9; in the data set on U2OS (6 h, replicate number 1) it was 0.81; in the data set with U2OS (6 h, replicate number 2), 0.82; with U2OS (12 h, replicate number 1), 0.45; with U2OS (12 h, replicate number 2) it was 0.73. Besides, the “Growth Rate” value with U2OS (18 h, replicate number 1) stood at 0.92; in the data set with U2OS (18 h, replicate number 2) it was 0.66; with U2OS (24 h, replicate number 1), 0.98; with U2OS (24 h, replicate number 2) it was 0.64; in the data set with HEK-293T (0 h, replicate number 1), 0.63; in the data set on HEK-293T (18 h, replicate number 2) it was 1. Besides, the “Growth Rate” value with HEK-293T (24 h, replicate number 1) was found to be 0.87; in the data set on HEK-293T (24 h, replicate number 2), 0.94; in the data set on Fibroblast (0 h, replicate number 2), 0.47; with Fibroblast (6 h, replicate number 2) it was 0.65; in the data set with Fibroblast (12 h, replicate number 2) it was 0.67.

Consider `CC(=O)N1CCN([C@H]2CCC[C@@H](NC(=O)c3cc4c(F)ccc(C)c4[nH]3)C2)CC1.O=C(O)C(F)(F)F`, for which the “Growth Rate” value in the data set on U2OS (0 h, replicate number 1) is given as 0.28; in the data set with U2OS (0 h, replicate number 2), 0.78; in the data set with U2OS (6 h, replicate number 2) it was 0.95; with U2OS (12 h, replicate number 1), 0.84; in the data set with U2OS (12 h, replicate number 2), 0.96; in the data set on U2OS (18 h, replicate number 2), 0.94. For the same compound, the “Growth Rate” value in the data set on U2OS (24 h, replicate number 1) is listed as 0.99; with U2OS (24 h, replicate number 2), 0.88; with HEK-293T (0 h, replicate number 1) it was 0.94; in the data set with HEK-293T (0 h, replicate number 2) it was -0.6; in the data set on HEK-293T (6 h, replicate number 1) it was 0.9; in the data set with HEK-293T (6 h, replicate number 2) it was 0.46. The “Growth Rate” value with HEK-293T (12 h, replicate number 1) was 0.75; in the data set on HEK-293T (12 h, replicate number 2) it was 0.4; in the data set on HEK-293T (18 h, replicate number 2), 0.68; with HEK-293T (24 h, replicate number 2) it was 0.48; in the data set on Fibroblast (0 h, replicate number 1), -0.07; in the data set with Fibroblast (0 h, replicate number 2) it was -0.08. Also, the “Growth Rate” value in the data set on Fibroblast (6 h, replicate number 2) is recorded as 0.42; in the data set with Fibroblast (12 h, replicate number 2), 0.88; in the data set on Fibroblast (18 h, replicate number 2), 0.88; with Fibroblast (24 h, replicate number 2), 0.9.
